Source: article PMC10629583, “Specific inhibition of an anticancer target, polo-like kinase 1, by allosterically dismantling its mechanism of substrate recognition” (Proceedings of the National Academy of Sciences of the …, 2023)
Entries after “also recorded” stand apart in the source; their conditions may differ. Where two headings read alike, the source gives them in different places. Where no end group is shown, it is not given here. [ ]: non-standard residue; d: D form. pT = C[C@@H](OP(=O)(O)O)[C@H](N)C(=O)O

Key:
L363 cells [1] = experiment: MTS cell viability assay, L363 cells; assay type: cell-based; conditions: 48 h treatment, read-out: Cell efficacy (GI50) Mean ± SD
full-length Plk1 [2] = biological target: T1, full-length Plk1 (Homo sapiens, UniProt P53350); experiment: ELISA-based PBD1-binding inhibition assay; conditions: total lysates from HEK293A cells expressing full-length Plk1; biotinylated PBIP1 p-T78 peptide; read-out: Anti-Plk1 (full length) ELISA (IC50) Mean ± SEM
T1 construct: expressed in transfected cells; host or cells: HEK293A cells infected with adenovirus; total lysate

[3] = Solubility in PBS (imaging of insoluble particles, dynamic light scattering); assay type: physicochemical; conditions: PBS buffer (pH 7.4)
Experimental: All samples were analyzed after adjusting the concentration to 100 μM solution in the PBS buffer (pH 7.4) containing 1% DMSO. The measurements were carried out at 25 °C using the DynaPro NanoStar system (Wyatt Technology). The intensity of the scattered light was measured as a function of time, and the resulting data were used to calculate the size and distribution of the particles in the sample. Collected data were analyzed using the DYNAMICS software to calculate the mean size and polydispersity index of the particles in the sample. At least three repeat measurements were performed to ensure that the results were accurate and reproducible.
Fig. S1. Solubility and activity of Allopole and its related compounds. (A) Images showing insoluble
particles of 200 µM of the indicated compounds dissolved in the PBS buffer. The aggregates of […]

full-length Plk1 [4] = biological target: T1, full-length Plk1; conditions: total lysates from HEK293A cells expressing full-length Plk1; ref Park, J.E., et al. (1); read-out: Anti-Plk1 (full length) ELISA (IC50) Mean ± SEM; cited from earlier work
L363 cells [5] = system: L363 cells; design: method as in Park, J.E., et al. (1); conditions: MTS, 48 h treatment, ref Park, J.E., et al. (1), cited from earlier work
[6] = Conversion of Allopole to Allopole-A in buffers ± GSH (LC-MS); assay type: physicochemical; conditions: 100 µM Allopole, room temperature, 1 h
Experimental: High-performance liquid chromatography (HPLC)/high-resolution mass spectrometry was used to determine the products derived from investigational drugs incubated under various conditions by measuring their exact masses. Thereafter, 20 μL aliquots of several drug preparations in either DMSO or aqueous reaction solutions were diluted 2:1 in ethanol, followed by centrifugation at 15,000 × g for 5 min. The supernatant was then injected on a Thermo Vanquish liquid chromatograph coupled to a Thermo Q Exactive Orbitrap mass spectrometer (Thermo Fisher Scientific). The conditions for the analysis are listed as follows.
The analytes were identified using the Dmass between the predicted and measured exact monoisotopic mass for the protonated molecular ions applied to the empirical formula algorithm in the Qual Browser application of the Xcalibur software (Themo Scientific). Selected ions from the base peak chromatogram were extracted for integration of peak areas. The relative amounts of each analyte to the sum total were calculated to estimate conversion of and prodrug under the specific conditions to breakdown products.
Table S2. Conversion of Allopole to Allopole-A under various buffer conditions, room
Buffers* Compounds detected
Allopole-A Allopole-A (-S) Allopole (-Cl) Allopole
* Buffer #1: 20 mM Tris (pH 8.0), 50 mM NaCl, 1 mM EDTA, 1% DMSO
Buffer #2: 1 x PBS (pH 7.4), 1 mM EDTA, 1% DMSO
Buffer #3: 20 mM HEPES (pH 7.0), 50 mM NaCl, 1 mM EDTA, 1% DMSO
Samples were prepared by incubating 100 µM of Allopole in the indicated buffer conditions in the
absence or presence of 5 mM GSH for 1 h at room temperature. Note that in the absence of GSH,

human His-Plk1 = biological target: T2, human His-Plk1 (Homo sapiens, UniProt P53350); experiment: In vitro Plk1 kinase assay (casein, 32P); assay type: biochemical; conditions: casein substrate
T2 construct: His (N); purchased Sino Biological; host or cells: Sf9
Experimental: Kinase reactions were carried out in two steps. First, Sf9-purified 0.2 µg of human His-Plk1 (Sino Biological) was preincubated in a kinase cocktail [50 mM Tris-Cl (pH 7.5), 10 mM MgCl2, 2 mM dithiothreitol, 2 mM EGTA, and 27 mM p-nitrophenylphosphate] in the presence of either Allopole-A or p-13mer PBIP peptide for 20 min at 25 °C. The samples were then added with 1 µg of dephosphorylated casein (Sigma) and 1.25 µM of ATP (1.25 µCi of [γ^32P] ATP, 1Ci = 37 GBq) and reacted for additional 30 min at 30 °C. The reactions were terminated by the addition of 5× Laemmli SDS sample buffer, separated by 10% SDS-PAGE, and analyzed by autoradiography. To quantify the γ^32P signals, appropriate bands were excised from dried SDS-PAGE gels and analyzed by a liquid scintillation counter (Beckman model LS 6500).

Plk3 PBD (PBD3) = biological target: T3, Plk3 PBD (PBD3) (Homo sapiens, UniProt Q9H4B4); experiment: FP-based inhibition assay, PBD3; assay type: binding; conditions: bacterially expressed purified PBD, FITC-ligand 15 nM, PBD at EC85
T3 construct: MBP-PBD3-His (335–646) (pKM3359) and its A612F (pKM7981); His (C); made in house; host or cells: bacteria (E. coli)
T3 sequence (Q9H4B4 335-646): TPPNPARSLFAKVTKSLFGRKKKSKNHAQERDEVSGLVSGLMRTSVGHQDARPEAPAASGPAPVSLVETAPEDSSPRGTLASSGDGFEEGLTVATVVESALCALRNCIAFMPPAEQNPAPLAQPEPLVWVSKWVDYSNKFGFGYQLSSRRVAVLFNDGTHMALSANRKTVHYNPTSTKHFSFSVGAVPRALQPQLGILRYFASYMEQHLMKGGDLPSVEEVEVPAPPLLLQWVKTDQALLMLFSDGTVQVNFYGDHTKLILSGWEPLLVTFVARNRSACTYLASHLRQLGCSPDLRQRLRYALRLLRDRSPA
Experimental: FP assays were carried out essentially as described previously ([35], [36]). FITC-conjugated ligands (15 nM) were mixed with PBDs at their EC85 concentrations. All the samples were analyzed approximately 30 min after reaction in a 384-well format using the SpectraMax Paradigm multimode microplate detection platform (Molecular Devices). Data were analyzed after carrying out at least three independent experiments using GraphPad Prism software version 8.

Plk2 PBD (PBD2) = biological target: T4, Plk2 PBD (PBD2) (Homo sapiens, UniProt Q9NYY3); experiment: FP-based inhibition assay, PBD2; assay type: binding; conditions: bacterially expressed purified PBD, FITC-ligand 15 nM, PBD at EC85
T4 construct: Purification of PBD2-His (355–685) (pKM3358) and its S652F mutant (pKM7980); His (C); made in house; host or cells: bacteria (E. coli)
T4 sequence (Q9NYY3 355-685): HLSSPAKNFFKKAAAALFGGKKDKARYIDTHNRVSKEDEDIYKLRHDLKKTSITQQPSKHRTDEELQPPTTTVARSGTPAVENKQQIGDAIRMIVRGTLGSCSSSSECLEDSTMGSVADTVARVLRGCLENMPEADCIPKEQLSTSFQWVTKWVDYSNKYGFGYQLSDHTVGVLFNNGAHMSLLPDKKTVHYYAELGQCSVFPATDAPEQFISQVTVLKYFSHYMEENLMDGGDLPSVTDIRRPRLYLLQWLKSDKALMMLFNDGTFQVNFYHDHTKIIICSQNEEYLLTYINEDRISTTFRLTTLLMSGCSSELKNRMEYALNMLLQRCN
Experimental: (§1) FP assays were carried out essentially as described previously ([35], [36]). […] All the samples were analyzed approximately 30 min after reaction in a 384-well format using the SpectraMax Paradigm multimode microplate detection platform (Molecular Devices). Data were analyzed after carrying out at least three independent experiments using GraphPad Prism software version 8.

Plk1 PBD (PBD1) = biological target: T5, Plk1 PBD (PBD1) (Homo sapiens, UniProt P53350); experiment: FP-based inhibition assay, PBD1; assay type: binding; conditions: FP, bacterially expressed purified PBD, FITC-ligand 15 nM, PBD at EC85; read-out: PBD1 IC50 ± SD
T5 construct: constructs expressing PBD1 (residues 345–603) WT (pKM7650); His; TEV site (N); made in house; host or cells: bacteria (E. coli)
Experimental: as §1

[7] = Buffer #1 (20 mM Tris pH 8.0), no GSH
[8] = Buffer #2 (1 x PBS pH 7.4), no GSH
[9] = Buffer #3 (20 mM HEPES pH 7.0), no GSH

T1 sequence (P53350 whole entry): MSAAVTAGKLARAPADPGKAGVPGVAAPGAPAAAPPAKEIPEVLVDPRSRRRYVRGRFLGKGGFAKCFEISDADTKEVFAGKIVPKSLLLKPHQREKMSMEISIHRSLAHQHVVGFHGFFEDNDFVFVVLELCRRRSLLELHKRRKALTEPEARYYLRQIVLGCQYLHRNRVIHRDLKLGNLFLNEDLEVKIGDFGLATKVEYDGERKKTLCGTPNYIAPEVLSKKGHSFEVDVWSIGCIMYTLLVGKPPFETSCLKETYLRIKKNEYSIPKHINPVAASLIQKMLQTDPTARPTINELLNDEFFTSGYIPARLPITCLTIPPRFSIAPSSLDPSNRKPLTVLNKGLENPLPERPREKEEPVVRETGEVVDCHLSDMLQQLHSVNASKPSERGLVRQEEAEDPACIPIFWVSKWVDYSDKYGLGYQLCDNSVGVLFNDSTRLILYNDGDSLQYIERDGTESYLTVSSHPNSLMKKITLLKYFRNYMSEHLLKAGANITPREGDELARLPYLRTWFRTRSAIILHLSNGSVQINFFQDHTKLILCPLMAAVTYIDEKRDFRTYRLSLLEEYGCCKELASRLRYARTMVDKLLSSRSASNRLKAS
T5 sequence (P53350 345-603): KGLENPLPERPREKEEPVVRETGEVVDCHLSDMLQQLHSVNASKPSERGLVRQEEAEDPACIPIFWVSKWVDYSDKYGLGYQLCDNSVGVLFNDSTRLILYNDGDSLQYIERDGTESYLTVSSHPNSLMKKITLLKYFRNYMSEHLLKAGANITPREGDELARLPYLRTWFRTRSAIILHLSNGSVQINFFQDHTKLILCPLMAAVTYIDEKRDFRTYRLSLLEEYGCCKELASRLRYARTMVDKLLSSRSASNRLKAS
T2 sequence (P53350 whole entry): as the sequence (P53350 whole entry) above

**Q.** What does the source list for `CCCn1c(=O)c2sc(C(C)(C)C)cc2n2c(Sc3c([N+](=O)[O-])ncn3C)nnc12` [compound 16]?
**A.** GI50 (L363 cells [1]): 4.19 ± 0.15 µM; IC50 (full-length Plk1 [2]): > 50 µM; Solubility (in words) [3]: moderately; also recorded: moderate

**Q.** For `CCCn1c(=O)c2sc(C)cc2n2c(Sc3c([N+](=O)[O-])ncn3C)nnc12` [compound 4], which IC50 (full-length Plk1 [4]) is on record?
**A.** > 50 µM

**Q.** What about the GI50 (L363 cells [5]; read-out: Cell efficacy (GI50) Mean ± SD) of the same compound?
**A.** 4.88 ± 0.1 µM

**Q.** What about the “Solubility (in words)” value [3] of the same compound?
**A.** lower-than-acceptable solubility; also recorded: low solubility

**Q.** Which results are given for `CCCn1c(=O)c2sccc2n2c(Sc3c([N+](=O)[O-])ncn3C)nnc12` [compound 12]?
**A.** GI50 (L363 cells [1]): 8.4 ± 0.74 µM; IC50 (full-length Plk1 [2]): > 50 µM; Solubility (in words) [3]: moderately; also recorded: moderate

**Q.** With `CCCn1c(=O)c2sc(Cl)cc2n2c(Sc3c([N+](=O)[O-])ncn3C)nnc12` [compound 14] as the compound, how does the GI50 (L363 cells [1]) read?
**A.** 6.04 ± 0.17 µM

**Q.** What about the IC50 (full-length Plk1 [2]) of the same compound?
**A.** > 50 µM

**Q.** For `Cn1cnc([N+](=O)[O-])c1Sc1nnc2n(CC3CC3)c(=O)c3sccc3n12` [Allopole (-Cl)], which “Compounds detected” value [6, 7] is on record?
**A.** 0.0 µmol/L

**Q.** What about the “Compounds detected, % of total” value [6, 7] of the same compound?
**A.** 0.0%

**Q.** And the “Compounds detected, pk area” value [6, 7]?
**A.** 4.85E+04

**Q.** And the “Compounds detected” value ([6]; Buffer #1 + 5 mM GSH)?
**A.** 0.5 µmol/L

**Q.** And the “Compounds detected, % of total” value ([6]; Buffer #1 + 5 mM GSH)?
**A.** 0.5%

**Q.** And the “Compounds detected, pk area” value ([6]; Buffer #1 + 5 mM GSH)?
**A.** 6.89E+06

**Q.** What about the “Compounds detected” value [6, 8] of the same compound?
**A.** 0.0 µmol/L

**Q.** And the “Compounds detected, % of total” value [6, 8]?
**A.** 0.0%

**Q.** And the “Compounds detected, pk area” value [6, 8]?
**A.** 2.42E+04

**Q.** What about the “Compounds detected” value ([6]; Buffer #2 + 5 mM GSH) of the same compound?
**A.** 0.3 µmol/L

**Q.** And the “Compounds detected, % of total” value ([6]; Buffer #2 + 5 mM GSH)?
**A.** 0.3%

**Q.** And the “Compounds detected, pk area” value ([6]; Buffer #2 + 5 mM GSH)?
**A.** 2.57E+06

**Q.** What about the “Compounds detected” value [6, 9] of the same compound?
**A.** 0.0 µmol/L

**Q.** And the “Compounds detected, % of total” value [6, 9]?
**A.** 0.0%

**Q.** What about the “Compounds detected, pk area” value [6, 9] of the same compound?
**A.** 0.00E+00

**Q.** And the “Compounds detected” value ([6]; Buffer #3 + 5 mM GSH)?
**A.** 0.4 µmol/L

**Q.** What about the “Compounds detected, % of total” value ([6]; Buffer #3 + 5 mM GSH) of the same compound?
**A.** 0.4%

**Q.** What about the “Compounds detected, pk area” value ([6]; Buffer #3 + 5 mM GSH) of the same compound?
**A.** 1.11E+06

**Q.** With `CCCn1c(=O)c2oc3ccccc3c2n2c(Sc3c([N+](=O)[O-])ncn3C)nnc12` [compound 8] as the compound, how does the GI50 (L363 cells [1]) read?
**A.** 8.31 ± 0.56 µM

**Q.** And the IC50 (full-length Plk1 [2])?
**A.** > 50 µM

**Q.** Which “Effect on His-Plk1 kinase activity in vitro (in words)” value (human His-Plk1) does the source give for “CETFDPPLHSpTAI (CETFDPPLHS[pT]AI) [p-13mer, phospho-13mer ligand derived from the PBIP1 p-T78 motif, reference compound]” here?
**A.** increased it

**Q.** For `CCCn1c(=O)c2oc3cccc(F)c3c2n2c(Sc3c([N+](=O)[O-])ncn3C)nnc12` [compound 10], which GI50 (L363 cells [1]) is on record?
**A.** 7.53 ± 0.43 µM

**Q.** What about the IC50 (full-length Plk1 [2]) of the same compound?
**A.** > 50 µM

**Q.** Which GI50 (L363 cells [1]) does the source give for `CCCn1c(=O)c2sc3ccccc3c2n2c(Sc3c([N+](=O)[O-])ncn3C)nnc12` [compound 18] here?
**A.** 7.05 ± 0.27 µM

**Q.** And the IC50 (full-length Plk1 [2])?
**A.** > 50 µM

**Q.** Which “PBD3 IC50 ± SD” value (Plk3 PBD (PBD3)) does the source give for `CCCn1c(=O)c2sc(C)cc2n2c(=S)[nH]nc12` [compound 3] here?
**A.** N. S.

**Q.** What about the IC50 (full-length Plk1 [4]) of the same compound?
**A.** 2.15 µM

**Q.** What about the “Cell efficacy (GI50) Mean ± SD” value (L363 cells [5]) of the same compound?
**A.** failed to induce any significant antiproliferation effect; also recorded: N. S

**Q.** And the “Solubility (in words)” value [3]?
**A.** lower-than-acceptable solubility

**Q.** And the “PBD2 IC50 ± SD” value (Plk2 PBD (PBD2))?
**A.** N. S.

**Q.** What about the IC50 (Plk1 PBD (PBD1)) of the same compound?
**A.** 0.0102 µM
